Measured values taken from patent publication US20100098641A1, “Monophosphates as Mutual Prodrugs of Anti-Inflammatory Signal Transduction Modulators (AISTM's) and Beta-Agonists for the Treatment of Pulmonary Inflammation and Bronchoconstriction” (priority 2006, published 2010).
Like-named read-outs stand apart in the source and are kept apart here.

Key:
alkaline phosphatase = alkaline phosphatase (Homo sapiens, UniProt P05187); assay: Conversion of mutual prodrugs to salmeterol and AISTM drug after exposure to alkaline phosphatase in vitro (LCMS); type: in vitro ADME; settings: for Calculated Compound Final Conc. (μM) at 270 mins.: 270 mins in ALP; for half-life at 0.1 mg/mL / half-life at 111.7 μM: human, alkaline phosphatase (Sigma P-3895) in reaction buffer, read-out: Half Life t1/2; for Example 37 in ALP (Peak Area Ratio) Normalized / Example 37 in ALP (Peak Area Ratio) mean / Example 29 in ALP (Peak Area Ratio) Normalized / Example 29 in ALP (Peak Area Ratio) mean: 37 degrees; for half-life at 111.7 μM: Table 1b
alkaline phosphatase, sequence (P05187 23-506): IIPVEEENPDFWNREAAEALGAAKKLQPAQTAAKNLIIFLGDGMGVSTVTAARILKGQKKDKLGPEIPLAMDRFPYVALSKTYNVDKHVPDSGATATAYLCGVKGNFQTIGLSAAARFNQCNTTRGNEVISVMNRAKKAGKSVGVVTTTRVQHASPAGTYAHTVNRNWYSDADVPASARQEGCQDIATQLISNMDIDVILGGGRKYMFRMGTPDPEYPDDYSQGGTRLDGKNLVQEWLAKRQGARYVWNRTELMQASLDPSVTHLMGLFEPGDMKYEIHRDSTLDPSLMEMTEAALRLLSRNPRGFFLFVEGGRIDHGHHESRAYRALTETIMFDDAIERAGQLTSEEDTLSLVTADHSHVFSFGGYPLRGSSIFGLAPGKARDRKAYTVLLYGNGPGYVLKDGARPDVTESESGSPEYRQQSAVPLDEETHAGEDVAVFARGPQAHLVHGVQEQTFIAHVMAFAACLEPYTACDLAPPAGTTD
Experimental: Conversion of the Mutual AISTM-β-Agonist Prodrugs (Described in Examples 29 and 37) to Salmeterol and Respective AISTM Drugs after Exposure to Alkaline Phosphatase In Vitro
Reaction Buffer (pH 7.4, 5 mM tris/1 mM Mg^2+/1 mM Zn^2+) […]
Dissolved ˜2 mg of the mutual prodrug of invention in 10 ml 1:1 acetonitrile/water.
Dissolved ˜2 mg of each MRA and β-agonist in 20 ml 1:1 acetonitrile/water
The stock solutions were mixed in microcentrifuge tubes, as depicted in the following Table:
(§1) The heat block was set at the 37 degrees. Then 0.5 mL of alkaline phosphatase solution was added into 4 preheated Eppendorf tubes. The aliquot 0.5 of prodrug and drug standards were added into preheated Eppendorf tubes. Immediately after vortexing the aliquots of 25 μL of the all reaction solutions were made into the respective 96-well plate positions. The internal standard (75 μl of 500 ng/mL Glyburide) was added into all samples after each aliquots. That procedure was repeated at every 15 minute intervals for ˜4-5 hours.
The 96-well plates were then analyzed using the LCMS technique.
(§2) In the calculation of half life, we assumed that the disappearance of the mutual prodrug of this invention followed first order kinetics. Therefore,
(§3) The area peak ratio of prodrug vs IS was plotted against time first; the peak area ratios of later time points were normalized with the peak area ratio of initial time point (ASAP). The natural log of the normalized ratio was then plotted against time to generate a linear curve. The slope of this linear curve k was used for the following calculation.
Drug concentrations are calculated by normalizing the peak area ration to (t 0). Thus, calculated drug concentrations at any time point=normalized peak area ratio [t (0) mean/t mean]multiplied initial drug concentration. Data (normalized peak area ratio) for the calculations of drug concentrations are listed in Table 1a (ALP activation) and 1b (half-life in ALP and buffer only) for the compound prepared in Example 29, salmeterol, and the ARRY-797 compound (Munson et al., 2004) and Table 2a (ALP activation) and 2b (half-life in ALP and buffer only)) for the compound prepared in Example 37, salmeterol, and the PDE4 inhibitor, CDP-840 (Alexander et al., 2002).

[1] = Half life of mutual prodrug in reaction buffer only (pH 7.4 tris/Mg2+/Zn2+); type: physicochemical; settings: reaction buffer without alkaline phosphatase, reaction buffer pH 7.4, no ALP
Experimental: Reaction Buffer (pH 7.4, 5 mM tris/1 mM Mg^2+/1 mM Zn^2+)
as §1, §2, §3
Drug concentrations are calculated by normalizing the peak area ration to (t 0). Thus, calculated drug concentrations at any time point=normalized peak area ratio [t (0) mean/t mean]multiplied initial drug concentration. […]

With `COc1ccc([C@H](Cc2cc[n+](Cc3ccc(C(O)CNCCCCCCOCCCCc4ccccc4)cc3OP(=O)(O)O)cc2)c2ccccc2)cc1OC1CCCC1` (stereo in doubt) [Example 37, 4-[2-(3-Cyclopentyloxy-4-methoxy-phenyl)-2-phenyl-ethyl]-1-(4-{1-hydroxy-2-[6-(4-phenyl-butoxy)-hexylamino]-ethyl}-2-phosphonooxy-benzyl)-pyridinium] the “Half Life t1/2” value (alkaline phosphatase; ALP Enzyme Conc. 0.224 mg/mL, Table 2b, first order kinetics assumed) was 0.925 h, the “Calculated Compound Final Conc. (μM) at 270 mins.” value (alkaline phosphatase; added initial conc. 117.4 μM in reaction mixture) was 1.9 µM and the half-life at 0.1 mg/mL (alkaline phosphatase; pH 7.4, ALP Enzyme Conc. 0.224 mg/mL, Table 2b, first order kinetics assumed) was 0.775 h. The half-life at 0.1 mg/mL (alkaline phosphatase; pH 7.4, ALP Enzyme Conc. 0.443 mg/mL, Table 2b, first order kinetics assumed) was 0.41 h, the “Example 37 in ALP (Peak Area Ratio) Normalized” value (alkaline phosphatase; time 0 mins) was 1.0000 and the “Example 37 in ALP (Peak Area Ratio) mean” value (alkaline phosphatase; time 0 mins) was 0.8115. The “Example 37 in ALP (Peak Area Ratio) Normalized” value (alkaline phosphatase; time 15.0 mins) was 0.5126, the “Example 37 in ALP (Peak Area Ratio) mean” value (alkaline phosphatase; time 15.0 mins) was 0.4160 and the “Example 37 in ALP (Peak Area Ratio) Normalized” value (alkaline phosphatase; time 30.0 mins) was 0.2705. The “Example 37 in ALP (Peak Area Ratio) mean” value (alkaline phosphatase; time 30.0 mins) was 0.2195, the “Example 37 in ALP (Peak Area Ratio) Normalized” value (alkaline phosphatase; time 45.0 mins) was 0.1719 and the “Example 37 in ALP (Peak Area Ratio) mean” value (alkaline phosphatase; time 45.0 mins) was 0.1395. For the same compound, the “Example 37 in ALP (Peak Area Ratio) Normalized” value (alkaline phosphatase; time 60.0 mins) was 0.1280, the “Example 37 in ALP (Peak Area Ratio) mean” value (alkaline phosphatase; time 60.0 mins) was 0.1039 and the “Example 37 in ALP (Peak Area Ratio) Normalized” value (alkaline phosphatase; time 75.0 mins) was 0.0974. For the same compound, the “Example 37 in ALP (Peak Area Ratio) mean” value (alkaline phosphatase; time 75.0 mins) was 0.0791, the “Example 37 in ALP (Peak Area Ratio) Normalized” value (alkaline phosphatase; time 90.0 mins) was 0.0752 and the “Example 37 in ALP (Peak Area Ratio) mean” value (alkaline phosphatase; time 90.0 mins) was 0.0610. For the same compound, the “Example 37 in ALP (Peak Area Ratio) Normalized” value (alkaline phosphatase; time 105 mins) was 0.0630, the “Example 37 in ALP (Peak Area Ratio) mean” value (alkaline phosphatase; time 105 mins) was 0.0511 and the “Example 37 in ALP (Peak Area Ratio) Normalized” value (alkaline phosphatase; time 120 mins) was 0.0478. The “Example 37 in ALP (Peak Area Ratio) mean” value (alkaline phosphatase; time 120 mins) was 0.0388, the “Example 37 in ALP (Peak Area Ratio) Normalized” value (alkaline phosphatase; time 135 mins) was 0.0439 and the “Example 37 in ALP (Peak Area Ratio) mean” value (alkaline phosphatase; time 135 mins) was 0.0357. For the same compound, the “Example 37 in ALP (Peak Area Ratio) Normalized” value (alkaline phosphatase; time 150 mins) was 0.0322, the “Example 37 in ALP (Peak Area Ratio) mean” value (alkaline phosphatase; time 150 mins) was 0.0262 and the “Example 37 in ALP (Peak Area Ratio) Normalized” value (alkaline phosphatase; time 165 mins) was 0.0296. For the same compound, the “Example 37 in ALP (Peak Area Ratio) mean” value (alkaline phosphatase; time 165 mins) was 0.0240, the “Example 37 in ALP (Peak Area Ratio) Normalized” value (alkaline phosphatase; time 180 mins) was 0.0275 and the “Example 37 in ALP (Peak Area Ratio) mean” value (alkaline phosphatase; time 180 mins) was 0.0224. The “Example 37 in ALP (Peak Area Ratio) Normalized” value (alkaline phosphatase; time 210 mins) was 0.0227, the “Example 37 in ALP (Peak Area Ratio) mean” value (alkaline phosphatase; time 210 mins) was 0.0184 and the “Example 37 in ALP (Peak Area Ratio) Normalized” value (alkaline phosphatase; time 240 mins) was 0.0198. For the same compound, the “Example 37 in ALP (Peak Area Ratio) mean” value (alkaline phosphatase; time 240 mins) was 0.0161, the “Example 37 in ALP (Peak Area Ratio) Normalized” value (alkaline phosphatase; time 270 mins) was 0.0161 and the “Example 37 in ALP (Peak Area Ratio) mean” value (alkaline phosphatase; time 270 mins) was 0.0131. For the same compound, the half-life ([1]; Table 2b) was 6.42 h.

With `CC(C)Cn1ncc2cc(Oc3ccc(F)cc3F)c(C(=O)NCC[N+](C)(C)Cc3cc(C(O)CNCCCCCCOCCCCc4ccccc4)ccc3OP(=O)(O)O)cc21` (stereo not shown) [Example 29, (2-{[5-(2,4-Difluoro-phenoxy)-1-isobutyl-1H-indazole-6-carbonyl]-amino}-ethyl)-(5-{-hydroxy-2-[6-(4-phenyl-butoxy)-hexylamino]-ethyl}-2-phosphonooxy-benzyl)-dimethyl-ammonium] the “Calculated Compound Final Conc. (μM) at 270 mins.” value (alkaline phosphatase; added initial conc. 111.7 μM in reaction mixture) was 57.5 µM, the half-life at 111.7 μM (alkaline phosphatase; pH 7.4, ALP Enzyme Conc. 0.224 mg/mL, first order kinetics assumed) was 5.78 h and the half-life at 111.7 μM (alkaline phosphatase; pH 7.4, ALP Enzyme Conc. 0.443 mg/mL, first order kinetics assumed) was 2.36 h. The “Example 29 in ALP (Peak Area Ratio) Normalized” value (alkaline phosphatase; time 0 mins) was 1.0000, the “Example 29 in ALP (Peak Area Ratio) mean” value (alkaline phosphatase; time 0 mins) was 2.3900 and the “Example 29 in ALP (Peak Area Ratio) Normalized” value (alkaline phosphatase; time 15.0 mins) was 0.9289. For the same compound, the “Example 29 in ALP (Peak Area Ratio) mean” value (alkaline phosphatase; time 15.0 mins) was 2.2200, the “Example 29 in ALP (Peak Area Ratio) Normalized” value (alkaline phosphatase; time 30.0 mins) was 0.9247 and the “Example 29 in ALP (Peak Area Ratio) mean” value (alkaline phosphatase; time 30.0 mins) was 2.2100. For the same compound, the “Example 29 in ALP (Peak Area Ratio) Normalized” value (alkaline phosphatase; time 45.0 mins) was 0.8368, the “Example 29 in ALP (Peak Area Ratio) mean” value (alkaline phosphatase; time 45.0 mins) was 2.0000 and the “Example 29 in ALP (Peak Area Ratio) Normalized” value (alkaline phosphatase; time 60.0 mins) was 0.7552. For the same compound, the “Example 29 in ALP (Peak Area Ratio) mean” value (alkaline phosphatase; time 60.0 mins) was 1.8050, the “Example 29 in ALP (Peak Area Ratio) Normalized” value (alkaline phosphatase; time 75.0 mins) was 0.7050 and the “Example 29 in ALP (Peak Area Ratio) mean” value (alkaline phosphatase; time 75.0 mins) was 1.6850. For the same compound, the “Example 29 in ALP (Peak Area Ratio) Normalized” value (alkaline phosphatase; time 90.0 mins) was 0.6402, the “Example 29 in ALP (Peak Area Ratio) mean” value (alkaline phosphatase; time 90.0 mins) was 1.5300 and the “Example 29 in ALP (Peak Area Ratio) Normalized” value (alkaline phosphatase; time 105 mins) was 0.6109. The “Example 29 in ALP (Peak Area Ratio) mean” value (alkaline phosphatase; time 105 mins) was 1.4600, the “Example 29 in ALP (Peak Area Ratio) Normalized” value (alkaline phosphatase; time 120 mins) was 0.6402 and the “Example 29 in ALP (Peak Area Ratio) mean” value (alkaline phosphatase; time 120 mins) was 1.5300. For the same compound, the “Example 29 in ALP (Peak Area Ratio) Normalized” value (alkaline phosphatase; time 135 mins) was 0.6192, the “Example 29 in ALP (Peak Area Ratio) mean” value (alkaline phosphatase; time 135 mins) was 1.4800 and the “Example 29 in ALP (Peak Area Ratio) Normalized” value (alkaline phosphatase; time 150 mins) was 0.5941. For the same compound, the “Example 29 in ALP (Peak Area Ratio) mean” value (alkaline phosphatase; time 150 mins) was 1.4200, the “Example 29 in ALP (Peak Area Ratio) Normalized” value (alkaline phosphatase; time 165 mins) was 0.5879 and the “Example 29 in ALP (Peak Area Ratio) mean” value (alkaline phosphatase; time 165 mins) was 1.4050. The “Example 29 in ALP (Peak Area Ratio) Normalized” value (alkaline phosphatase; time 180 mins) was 0.5439, the “Example 29 in ALP (Peak Area Ratio) mean” value (alkaline phosphatase; time 180 mins) was 1.3000 and the “Example 29 in ALP (Peak Area Ratio) Normalized” value (alkaline phosphatase; time 210 mins) was 0.5146. The “Example 29 in ALP (Peak Area Ratio) mean” value (alkaline phosphatase; time 210 mins) was 1.2300, the “Example 29 in ALP (Peak Area Ratio) Normalized” value (alkaline phosphatase; time 240 mins) was 0.4916 and the “Example 29 in ALP (Peak Area Ratio) mean” value (alkaline phosphatase; time 240 mins) was 1.1750. The “Example 29 in ALP (Peak Area Ratio) Normalized” value (alkaline phosphatase; time 270 mins) was 0.5146, the “Example 29 in ALP (Peak Area Ratio) mean” value (alkaline phosphatase; time 270 mins) was 1.2300 and the half-life ([1]; Table 1b) was 57.8 h.
